Measurements taken from publication PMC11959965 (Acta Pharmaceutica Sinica. B, 2024).
pKi: −log10 of the molar value. “Also recorded” adds a separate entry of the source.

Columns and labels:
TSPO [1] = conditions: read-out: human U87MG Ki; cited from earlier work
TSPO [2] = biological target: T1, TSPO (Rattus norvegicus, UniProt P16257); assay: In vitro autoradiography on rat brain slices; assay type: binding; conditions: sham rat brain slices; PK11195 14.17 μmol/L, [19F]F-TFQC 12.91 μmol/L; 14.5 nmol/L [18F]F-TFQC; P < 0.001
T1 sequence (P16257 whole entry): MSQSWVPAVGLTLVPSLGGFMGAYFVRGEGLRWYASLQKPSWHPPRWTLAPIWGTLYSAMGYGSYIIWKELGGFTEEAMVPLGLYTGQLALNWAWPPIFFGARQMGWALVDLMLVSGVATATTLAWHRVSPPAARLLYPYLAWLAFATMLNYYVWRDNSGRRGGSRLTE

TSPO [3] = biological target: T1, TSPO; assay: Micro PET/CT imaging in KA-induced epileptic rats; assay type: in vivo, SD rats; conditions: 2 mg/kg i.v. 10 min prior to [18F]F-TFQC, P < 0.05

| blocking of [18F]F-TFQC autoradiography signals (TSPO [2]) | blocking of [18F]F-TFQC radioactivity in the right hippocampus (TSPO [3]) | SMILES | pKi (TSPO [1]) |
| --- | --- | --- | --- |
| disappeared; also recorded: blocked | blocked | CC[C@@H](C)N(C)C(=O)c1nc(-c2cccc(C(F)(F)F)c2)c2ccccc2n1 [[^19F]F-TFQC, N-((2R)-but-2-yl)-N-methyl-4-(3-(trifluoromethyl)phenyl)quinazoline-2-carboxamide] | 8.92 |
| disappeared; also recorded: blocked |  | CCC(C)N(C)C(=O)c1cc2ccccc2c(-c2ccccc2Cl)n1 (stereo not shown) [PK11195, reference compound] |  |
